Results taken from patent US20080207502A1, “Anti-Angiogenic Peptides and Methods of Use Thereof” (SOPHERION THERAPEUTICS, INC., priority 2004, published 2008).
Each block holds one sequence with its values, some of them ahead of it.

What was measured:
[1] = test system: Bovine Retinal Endothelial Cells (BRE); experiment: VEGF-mediated survival/proliferation of BRE cells (WST1); assay type: cell-based
Procedure: (§1) The anti-angiogenic activities of the peptides were tested by measuring the level of inhibition of VEGF and bFGF mediated survival/proliferation of Bovine Retinal Endothelial Cells (BRE), Human Dermal Microvasculature Endothelial Cells, and Human Umbilical Vein Endothelial Cells, all of which are standard cell lines used to test anti-angiogenic compounds.
Bovine retinal endothelial (BRE) cells were maintained in Cambrex EG2 media. For non-adherent cell assays, on day one cells were starved for either 6 hours or overnight, then trypsinized and plated in 96-well plates in 100 μl of Optimem plus 1% fetal bovine serum (FBS). One hundred μl of Optimem plus 1% FBS was added to the wells containing, where appropriate, VEGF to a final concentration of 25 ng/ml, and the various peptides to final concentrations as described. For adherent cells, cells were plated in 96-well plates in complete media, allowed to adhere overnight, washed in starvation media (Optimem plus 1% FBS) and then starved during the day. At the end of the day, 100 μl of Optimem plus 1% FBS was added to the wells containing, where appropriate, VEGF to a final concentration of 25 ng/ml and the various peptides to final concentrations as described.
(§2) In all cases, after 72 hours incubation, the amount of live cells in each well was measured with the WST1 assay (Roche).

[2] = Biological activity of D-amino acid versions of ST100,038 (assay not specified); details: ST100,045 tested against ST100,059 and a control
Procedure: D-amino acid peptides can be made by generating a D-amino acid peptide with the same sequence as a L-amino acid peptide or by preparing a retro inverso form of a peptide. ST100,045 (SEQ ID NO.: 31) has the same sequence as ST100,038 (SEQ ID NO.: 29) was tested against ST100,059 (SEQ ID NO.: 30) which is the retro inverso version of ST100,038 and a control.

B16 melanoma tumor = experiment: Subcutaneous B16 melanoma tumor model in vivo; set-up: species or system mouse; details: vs untreated controls
Procedure: Because of the importance of the angiogenic process for tumorigenesis, miniproteins as described herein, were hypothesized to show good anti-tumor activity. The peptides of the invention were tested in an in vivo model of anti-tumor activity. This model compares the growth of sub cutaneous B16 melanoma tumor in vivo either untreated or treated with various amount of miniproteins described in this application. This model is widely accepted in the art as a model to test the anti-tumor activity of compounds that inhibit tumor growth because they have anti-angiogenic activity.
Male C57BL/6 mice were obtained with a mean body weight of 20±2 g. Mouse B16-F1 melanoma cells were implanted subcutaneously (5×10^5 cell per animal). Peptides (formulated in water) were administered ip daily at the amount indicated starting the day after cells injection. In general, tumors became palpable around 9 days after injection of cells. Tumor were then measured every 2 days.

[3] = test system: binding of radiolabeled VEGF to endothelial cells; experiment: Inhibition of binding of radiolabeled VEGF to endothelial cells; details: concentration of 30 μM; for inhibition of VEGF binding: FIG. 7; for VEGF binding inhibition: legend of FIG. 7
From the text: The activity of the peptides SEQ ID NO.: 1 and SEQ ID NO.: 2 in blocking the binding of radiolabeled VEGF to endothelial cells is shown in FIG. 7.

[4] = Heparin binding activity by liquid chromatography on Hi Trap Heparin HP column (NaCl elution); details: step gradient 500-1000 mM NaCl in 10 mM NaH2PO4 pH 7
From the text: Liquid chromatography was used to determine the relative levels of heparin binding activity of the individual heparin binding domains and of the anti-angiogenic miniproteins that contains them. In this assay, the strength of the heparin binding activity is proportional to the amount of NaCl that is required to elute the peptide bound to the heparin column. Peptides with low binding activity are eluted with lower NaCl concentration, whereas higher concentrations of NaCl are required for peptides with higher binding activity.
Hi Trap Heparin HP column (1 ml, Amersham Biosciences) was equilibrated with 10 column volumes (CV) of equilibration (EQ) buffer=10 mM NaH2PO4pH 7. All buffers were loaded onto columns via syringes. 500 μl fractions are collected (flow rate=1 ml/minute). 500 μg of peptide (1 mg/ml, resuspended in EQ buffer) was added to each column and the flow through was collected for analysis. The columns were then washed with 3 CV of EQ buffer. Peptides are then eluted with a step gradient of 500, 625, 750, 875 mM NaCl in EQ buffer, 2 CV per each step. A final step of 3 CV of 1000 mM NaCl in EQ buffer was collected in 500 μl fractions. The A210 nm was measured using EQ and elution buffers as blanks.

[5] = test system: mouse leukemia L1210 cells; experiment: Tumor cell proliferation (WST-1), L1210; assay type: cell-based; details: FIG. 11
Procedure: Peptides to be tested were prepared at a stock concentration of 10 mM in sterile phosphate buffered saline. Cancer cell lines obtained from the American Type Culture Collection (MG-63, HT1080, A498, BxPC3, 786-0, PC-3, B16F1, B16F10, P388D1, Jurkat, MOLT4, THP-1, U-937, L1210, RPMI 8226, NCI H929, U266B1, K562) were cultured under appropriate conditions as described in the literature. Cell culture media and reagents were obtained from ATCC (Manassas, Va.), Invitrogen (Carlsbad, Calif.) or Mediatech (Herndon, Va.). Exponentially growing cultures were used for cell proliferation assays. Adherent cells were plated at a concentration of 100000 cells per milliter in growth media overnight (18-24 h) and treated the next day in a low serum media (growth media with 1% FBS for MG-63, HT1080, A498, BxPC3, PC-3, B16F1, B16F10. 786-0 cells were treated in media with 5% FBS). Suspension cell lines (P388D1, Jurkat, MOLT4, THP-1, U-937, L1210, RPMI 8226, NCI H929, U266B1, and K562) were diluted to a concentration of 100,000 cells per ml and treated on the same day with peptides. Peptides were diluted in treatment media and cells were treated for 48 or 72 hours depending on the cell line. Each dose was tested in triplicate for each experiment, and experiments were repeated for a minimum of three discrete times. After incubation, the relative number of cells was determined using WST-1 (Roche Applied Science). A 9.5 μl aliquot of WST-1 was added to each well. The plate was immediately read at 440 nm using a Bio-Tek PowerWave XS microplate reader, incubated for 2-3 hours at 37° C. and then read again. Cell proliferation was determined as the percent of the control cell proliferation. The absorbance of each well at time 0 was subtracted from the value of the final reading. Afterwards the blank values were averaged and subtracted from each test and control value. Finally, each test absorbance was divided by the average of the control absorbances and multiplied by 100 to obtain the percent of control. […]

L1210 murine leukemia = L1210 murine leukemia intravenous model in vivo; set-up: species or system mouse; details: dosed IP, DBA/2 mice, FIG. 15a
Procedure: Antitumor activity of test peptides, administered intraperitoneally (IP), were evaluated against L1210 murine leukemia cells implanted intravenously (IV) in DBA/2 mice.
Studies generally consisted of randomly-assigned groups of 8 mice per group, which were inoculated IV with 1×10^5 cells per mouse from an in vivo leukemia cell line. In addition to groups tested with test peptides, studies usually included a vehicle-treated control group and a positive control group treated with an agent known to be active in the L1210 leukemia model. Starting one day after tumor inoculation (inoculation day defined as Day 0), mice were treated IP with either vehicle or test peptides in various schedules. Generally this consisted of treatment every other day for approximately 1 week (e.g., Days 1, 3, 5 and 7). A positive agent (e.g., cyclophosphamide) was usually given as a single IP injection on Day 1. All dosing solutions were prepared on each day of treatment. Survival was monitored daily and body weights were measured twice weekly. Anti-tumor activity was assessed by the increase in lifespan of the treated groups in comparison to the vehicle-treated control group. Studies with the L1210 leukemia model were limited to 30 days.

[6] = test system: Human Umbilical Vein Endothelial Cells; experiment: bFGF-mediated survival/proliferation of human umbilical vein endothelial cells (WST1); assay type: cell-based; details: for potency in blocking bFGF stimulation: compared with ST100,068, FIG. 6; for inhibition of bFGF mediated survival: comparison of several peptides, FIG. 10
Procedure: as §1
Human umbilical cord endothelial (HUVEC) cells were maintained in Cambrex EGM-2MV media. On day one, cells were starved overnight in 1% FBS in M200 media (Cascade Biologicals). The morning after, the media were replaced with serum-free media (control) or media containing 25 ng/ml of human VEGF165 and the various peptides to final concentrations as described.
as §2

Sequence: ATSLPPHSSQSP (listed as Homo sapiens) [ST100,038]
Concentrations that completely abolished the VEGF-induced increase in WST-1 value ([1]; VEGF 25 ng/ml, 72 hours, FIG. 4): above 40 μM

Sequence: ATSLPPHSSQSP (listed as Homo sapiens) [ST100,045]
biologically active [2]: Only the retro inverso form of ST100,038, (ST100,059; SEQ ID NO.: 30) was found to be biologically active

Sequence: ATSLPPHSSQSPGGGPPAARGRRAARGRR (listed as Homo sapiens) [ST100,062]
inhibition of tumor growth (B16 melanoma tumor; 20 mg/kg daily IP, FIG. 12): clearly inhibit tumor growth

Sequence: PYAGRGDSVVYGLGGGPGAARGRRAARGRR [ST100,033]
inhibition of VEGF binding [3]: ~100%
VEGF binding inhibition [3]: completely abolished VEGF binding

[NaCl] for elution [4]: 1000 mM
Sequence: RAAKKRKRAAKKRARAAKKRLGYVVSDGRGDYP (RAAKKRARAAKKRARAAKKRLGYVVSDGRGDYP; listed as Homo sapiens) [ST100,079]

[NaCl] for elution [4]: 1000 mM
Sequence: RKKAARARKKAARARKKAARRLGYVVSDGRGDYP (listed as Homo sapiens) [ST100,081]

[NaCl] for elution [4]: 1100 mM
Sequence: RKRAALRARKRAARARKRAARR (RKRAARARKRAARARKRAARR; listed as Homo sapiens) [ST100,083]

Sequence: RLGYVVSDGRGDYP (listed as Homo sapiens) [ST100,077]
blocked cell proliferation or induced cell death [5]: Neither

Sequence: RLGYVVSDGRGDYPKKKRRGRAARRGRAA [ST100,065]
[NaCl] for elution [4]: 750 mM
mice (cured mice) survived longer than 30 days (L1210 murine leukemia): Sixty to eighty percent
survival (L1210 murine leukemia): statistically significant increases in survival

[NaCl] for elution [4]: 1000 mM
Sequence: RRGRAAKKKRRGRAAKKK (listed as Homo sapiens) [ST100,082]

[NaCl] for elution [4]: 1000 mM
Sequence: RRGRAAKKKRRGRAAKKKPSQSSHPPLSTA (listed as Homo sapiens) [ST100,072]
potency in blocking bFGF stimulation [6]: more potent in blocking bFGF stimulation

Sequence: RRGRAAKKKRRGRAAKKKRLGYVVSDGRGDYP [ST100,074]
[NaCl] for elution [4]: 1000 mM
mice (cured mice) survived longer than 30 days (L1210 murine leukemia): Sixty to eighty percent
survival (L1210 murine leukemia): statistically significant increases in survival
inhibition of bFGF mediated survival [6]: the most active in inhibiting bFGF stimulation

Sequence: RRGRAARRGRAAKKK (listed as Homo sapiens) [ST100,078]
blocked cell proliferation or induced cell death [5]: Neither
inhibition of bFGF mediated survival [6]: not as potent

Sequence: RRGRAARRGRAAKKKPSQSSHPPLSTA (listed as Homo sapiens) [ST100,068]
inhibition of tumor growth (B16 melanoma tumor; 20 mg/kg and 40 mg/kg daily IP, FIG. 13): able to inhibit tumor growth
potency in blocking VEGF stimulation ([1]; compared with ST100,059, FIG. 5): more potent in blocking VEGF stimulation
inhibition of VEGF stimulation ([1]; increasing doses, FIG. 5): inhibited with increasing doses

[NaCl] for elution [4]: 1000 mM
Sequence: RRGRAARRGRAARRGRAAKKKPSQSSHPPLSTA (listed as Homo sapiens) [ST100,073]
inhibition of tumor growth (B16 melanoma tumor; 20 mg/kg daily IP, FIG. 14): able to inhibit tumor growth
potency in blocking bFGF stimulation [6]: more potent in blocking bFGF stimulation
inhibition of bFGF mediated survival [6]: the most active in inhibiting bFGF stimulation

Sequence: YDGRGDSVVYGLKKKAARGRRAARGRR [ST100,032]
inhibition of VEGF binding [3]: ~100%
VEGF binding inhibition [3]: completely abolished VEGF binding
